# Organism: Rattus norvegicus
# Assay: Open TG-GATES - Regimen: Daily Repeat
# Assay type: toxicity, organism-based, Sprague-Dawley
# Set-up: regimen Daily Repeat, gender Male, age 6 weeks
# Settings: in vivo, po, route gavage; for gamma-GTP / ALP / ALT / AST / BUN / CRE / Ca / DBIL / GLC / IP / K / LDH / Na / PL / RALB / TBIL / TC / TG / TP: tissue Plasma; for APTT / Bas / Eos / Fbg / Hb / Ht / Lym / MCH / MCHC / MCV / Mono / Neu / PT / Plat / RBC / Ret / WBC: tissue Blood; for KIDNEY_L / KIDNEY_R / KIDNEY_TOTAL: tissue Kidney; for LIVER: tissue Liver
# [1] = 30 mg/kg, 72 h, dose level Middle, time 3 day
# [2] = 30 mg/kg, […], dose level Middle, time 7 day
# [3] = 30 mg/kg, […], dose level Middle, time 14 day
# [4] = 30 mg/kg, […], dose level Middle, time 28 day
structure (smiles),measurement,setting,value
CSc1ccc2c(c1)N(CCC1CCCCN1C)c1ccccc1S2 (stereo not drawn) [THIORIDAZINE],gamma-GTP,"10 mg/kg, […], dose level Low, time 28 day",1.4 IU/L
same,TERMINAL_BW,[1],234.2 g
same,APTT,[1],15.8 s
same,Bas,[1],0%
same,Eos,[1],1%
same,Fbg,[1],219.8 mg/dL
same,Hb,[1],14.1 g/dL
same,Ht,[1],42.2%
same,Lym,[1],79.6%
same,MCH,[1],21.7 pg
same,MCHC,[1],33.4%
same,MCV,[1],64.9 fL
same,Mono,[1],7%
same,Neu,[1],12.6%
same,PT,[1],11.9 s
same,Plat,[1],110.7 x10_4/uL
same,RBC,[1],651 x10_4/ul
same,Ret,[1],8%
same,WBC,[1],122.3 x10_2/uL
same,KIDNEY_L,[1],1 g
same,KIDNEY_R,[1],1.1 g
same,KIDNEY_TOTAL,[1],2.1 g
same,LIVER,[1],12.3 g
same,ALP,[1],1002.8 IU/L
same,ALT,[1],44 IU/L
same,AST,[1],66.2 IU/L
same,BUN,[1],19 mg/dL
same,CRE,[1],0.5 mg/dL
same,Ca,[1],11.3 mg/dL
same,DBIL,[1],0.012 mg/dL
same,GLC,[1],188 mg/dL
same,IP,[1],9.3 mg/dL
same,K,[1],4.9 meq/L
same,LDH,[1],88.6 IU/L
same,Na,[1],139 meq/L
same,PL,[1],176.2 mg/dL
same,RALB,[1],4.1 g/dL
same,TBIL,[1],0.3 mg/dL
same,TC,[1],92 mg/dL
same,TG,[1],105.6 mg/dL
same,TP,[1],6 g/dL
same,gamma-GTP,[1],1.6 IU/L
same,TERMINAL_BW,[2],271.1 g
same,TERMINAL_BW,[3],301.4 g
same,TERMINAL_BW,[4],394 g
same,APTT,[2],15.4 s
same,Bas,[2],0%
same,Eos,[2],0.6%
same,Fbg,[2],235.6 mg/dL
same,Hb,[2],14.9 g/dL
same,Ht,[2],44.8%
same,Lym,[2],82.4%
same,MCH,[2],21.1 pg
same,MCHC,[2],33.2%
same,MCV,[2],63.6 fL
same,Mono,[2],5.8%
same,Neu,[2],11%
same,PT,[2],11.9 s
same,RBC,[2],705.6 x10_4/ul
same,Ret,[2],5.7%
same,WBC,[2],139.8 x10_2/uL
same,APTT,[3],16.2 s
same,Bas,[3],0%
same,Eos,[3],1%
same,Fbg,[3],224.8 mg/dL
same,Hb,[3],14.5 g/dL
same,Ht,[3],41%
same,Lym,[3],76.8%
same,MCH,[3],22.1 pg
same,MCHC,[3],37.1%
same,MCV,[3],59.7 fL
same,Mono,[3],8.4%
same,Neu,[3],14.4%
same,PT,[3],11.6 s
same,Plat,[3],101.3 x10_4/uL
same,RBC,[3],685.8 x10_4/ul
same,Ret,[3],3.8%
same,WBC,[3],148.2 x10_2/uL
same,APTT,[4],18 s
same,Bas,[4],0%
same,Eos,[4],1%
same,Fbg,[4],237.2 mg/dL
same,Hb,[4],15.5 g/dL
same,Ht,[4],46.8%
same,Lym,[4],83%
same,MCH,[4],19.6 pg
same,MCHC,[4],33.3%
same,MCV,[4],58.9 fL
same,Mono,[4],5.8%
same,PT,[4],11.9 s
same,Plat,[4],106.6 x10_4/uL
same,RBC,[4],795.4 x10_4/ul
same,Ret,[4],5.4%
same,WBC,[4],161 x10_2/uL
same,KIDNEY_L,[2],1.2 g
same,KIDNEY_R,[2],1.2 g
same,KIDNEY_TOTAL,[2],2.3 g
same,KIDNEY_L,[3],1.3 g
same,KIDNEY_R,[3],1.3 g
same,KIDNEY_TOTAL,[3],2.5 g
same,KIDNEY_L,[4],1.4 g
same,KIDNEY_R,[4],1.5 g
same,KIDNEY_TOTAL,[4],2.9 g
same,LIVER,[2],13.7 g
same,LIVER,[3],14 g
same,LIVER,[4],17.9 g
same,ALP,[2],818.4 IU/L
same,ALT,[2],37.4 IU/L
same,AST,[2],64.2 IU/L
same,BUN,[2],17.8 mg/dL
same,CRE,[2],0.5 mg/dL
same,Ca,[2],11.3 mg/dL
same,DBIL,[2],0.008 mg/dL
same,GLC,[2],183.8 mg/dL
same,IP,[2],8.6 mg/dL
same,K,[2],4.8 meq/L
same,LDH,[2],84.8 IU/L
same,Na,[2],138.6 meq/L
same,PL,[2],174 mg/dL
same,RALB,[2],4.1 g/dL
same,TBIL,[2],0.3 mg/dL
same,TC,[2],88.4 mg/dL
same,TG,[2],124.8 mg/dL
same,TP,[2],6.1 g/dL
same,gamma-GTP,[2],1.8 IU/L
same,ALP,[3],731.4 IU/L
same,ALT,[3],34.6 IU/L
same,AST,[3],65.8 IU/L
same,BUN,[3],16.4 mg/dL
same,CRE,[3],0.5 mg/dL
same,Ca,[3],10.5 mg/dL
same,DBIL,[3],0.02 mg/dL
same,GLC,[3],179.2 mg/dL
same,IP,[3],7.9 mg/dL
same,K,[3],4.8 meq/L
same,LDH,[3],103.2 IU/L
same,Na,[3],139.4 meq/L
same,PL,[3],159.4 mg/dL
same,RALB,[3],4.1 g/dL
same,TBIL,[3],0.3 mg/dL
same,TC,[3],77.6 mg/dL
same,TG,[3],139.8 mg/dL
same,TP,[3],6.2 g/dL
same,gamma-GTP,[3],1 IU/L
same,ALP,[4],625.2 IU/L
same,ALT,[4],39.8 IU/L
same,AST,[4],66.2 IU/L
same,BUN,[4],20.2 mg/dL
same,CRE,[4],0.6 mg/dL
same,Ca,[4],11 mg/dL
same,DBIL,[4],0.002 mg/dL
same,GLC,[4],183.2 mg/dL
same,IP,[4],7.3 mg/dL
same,K,[4],4.2 meq/L
same,LDH,[4],152.2 IU/L
same,Na,[4],140.2 meq/L
same,PL,[4],159.4 mg/dL
same,RALB,[4],4.2 g/dL
same,TBIL,[4],0.3 mg/dL
same,TC,[4],77.4 mg/dL
same,TG,[4],122.6 mg/dL
same,TP,[4],6.4 g/dL
same,gamma-GTP,[4],1.6 IU/L

# Source: ChEMBL document CHEMBL3885861, “Open TG-GATES”
